Residues, ends and D or L forms follow the SMILES beside them. *: point of attachment. Tos = Cc1ccc(S(=O)(=O)*)cc1
| SMILES | melting point [°C] |
| --- | --- |
| CC(O)(c1ccccc1)C1CCNCC1 (stereo not drawn) | 172 to 175 |
| O=C(C=Cc1cc(Br)c(O)c(Br)c1)N1CCc2c([nH]c3ccccc23)C1c1ccc2c(c1)OCO2 (stereo not drawn) | 148 to 150 |
| CC(C)n1nc(-c2ccc(O)cc2)c2cccc(C(F)(F)F)c21 | 156 to 157 |
| CCCc1nn(CC)c2c(=S)[nH]c(-c3ccccc3OCC)nc12 | 130 to 131 |
| COc1ccc(Nc2nc3cc4c(cc3[nH]2)NC(=O)C4(C)C)cc1 | 286 to 288 |
| CCCOc1ccc2c(c1)[C@@H](c1ccc(OC)cc1OCCO)[C@@H](C(=O)OC)[C@H]2c1ccc2c(c1)OCO2 (racemic) | 165 to 168 |
| O=C(CC(c1ccc(OC(F)F)c(OCC2CC2)c1)N1C(=O)c2ccccc2C1=O)NO (stereo not drawn) | 129 to 131 |
| CCCCCCCCCCCCCCCCCCNC(=O)O[C@@H]1CCCO[C@H]1COCc1ccccc1 (relative stereo) | 84 to 86 |
| C=CC[C@](N)(Cc1ccccc1)C(=O)O | 158 to 159 |
| c1ccc2nc(-c3cc4nccnc4[nH]3)ccc2c1 | 293 to 295 |
| Cc1c(NC(=O)C(C)(C)C)cccc1C(F)(F)F | 122 |
| S=C=Nc1ccc(Sc2nc3ccccc3s2)cc1 | 84.5 to 86 |
| CCCCC1=Nc2sccc2C(=CN)N1CCC | 45 to 47 |
| COc1nc(C)c(C(C)OC(=O)CCC(=O)O)cc1NC(=O)N1CCN(c2cc(C)cc(C)c2)CC1 (stereo not drawn) | 138 to 140 |
| Cc1noc(C)c1-c1ccc(OC2SCC(O)C(O)C2O)cc1 (stereo not drawn) | 175 to 179 |
| O=C(O)c1c(-c2ccccc2)c2cc(Cl)c(Cl)cc2oc1=O | 233 to 234 |
| CCOC(=O)c1cc([N+](=O)[O-])c(Nc2cccc(C)n2)c(S(N)(=O)=O)c1 | 203 to 204 |
| COC(=O)C[C@H]1S[C@H](c2cccc(OC)c2OC)c2cc(Cl)ccc2N(CC(C)(C)C)C1=O | 170 to 171 |
| CC(C)(C)OC(=O)c1ncn2c1[C@@H]1CC=CN1C(=O)c1c(Cl)cccc1-2 | 235 to 237 |
| C=CCNCc1c(CO)nc2n1-c1ccc(Cl)cc1C(c1ccccc1F)=NC2 | 140 |
| COc1ccc2c(c1)CCC1=C2CCCN1C(C)=O | 119 to 120 |
| CC(=O)N1CCN(c2ccc(O)cc2Br)CC1 | 212 to 214 |
| CCCn1c(=O)c2[nH]c(C)nc2n(CCC)c1=O | 202 to 203 |
| CCCc1c(OCCCCCCc2cccc(OCCCCCCCCC(=O)O)c2CCC(=O)O)ccc2c1OCCC2=O | 63 to 65 |

| SMILES | melting point [°C] |
| --- | --- |
| COc1nc(C)c(C)nc1NC(=O)N1CCN(c2cccc(Br)c2)CC1 | 158 to 160 |
| CSC1NC(N)=CC(=O)N1C (stereo not drawn) | 255 |
| CCc1nn2c(-c3ccc(OC)cc3Cl)cccc2c1N(CC)CCCF | 76.6 to 79.6 |
| CCCc1c(OCCCCCOc2ccccc2/C=C/C(=O)O)ccc2c1OCCC2=O | 123 to 126 |
| O=C(c1ccc(F)cc1)n1c2c(c3ccccc31)CC(C(=O)O)(C(=O)O)CC2 | 190 to 195 |
| O=C1Oc2ccccc2NC1Cl (stereo not drawn) | 133 to 136 |
| COc1ccc(CNn2c(=O)ccc3ccc(Cl)nc32)cc1Cl | 151 to 154 |
| Nc1cccc(C2NC(=O)Cc3ccccc32)c1 (stereo not drawn) | 179 to 180 |
| O=C1OCc2cc([N+](=O)[O-])c(Oc3ccc(F)cc3F)cc21 | 164 to 166 |
| CCOC(=O)c1ncn(-c2nc(C)cs2)c1N | 152 to 155 |
| Cc1cc2c(cc1C)N(C)C(=O)C(CC(=O)O)C2c1ccccc1Cl (stereo not drawn) | 210 to 215 |
| CCOC(=O)Oc1ccc(C=CC(=O)N2CCN(CC(=O)N3CCCC3)CC2)cc1 | 128 to 130 |
| CN1c2ccc([N+](=O)[O-])cc2C(C)(C)C12C=Nc1cc(-c3ccc(N4CCCC4)cc3)c3ccccc3c1O2 (stereo not drawn) | 260 to 262 |
| O=C(Nc1ccc(-n2nc(C(F)(F)F)cc2C(F)(F)F)cc1)c1c(F)cccc1Cl | 165 to 167 |
| CCOC(=O)C1=CC(CF)(CF)Oc2ccc(I)cc21 | 89 to 90 |
| CCCC1=C(C#N)C(c2ccccc2C#N)c2c[nH]nc2N1 (stereo not drawn) | 218 |
| CCOC(=O)C1=C(C)Nc2cncn2C1c1cccc([N+](=O)[O-])c1 (stereo not drawn) | 196 to 197 |
| CS(=O)(=O)c1ccc(-c2cnn(CC(F)(F)F)c(=O)c2Oc2ccc(-c3ccccc3)cc2)cc1 | 163 to 165 |
| CCCCNC(=O)[C@H](C)C[C@H](O)[C@H](CC1CCCCC1)NC(=O)[C@H](Cc1cscn1)NC(=O)[C@@H](CC(=O)N1CCN(C)CC1)Cc1ccc(OC)cc1 | 125 to 126 |
| CN1CCN(CC2CCN(c3ncc4ncnc(Nc5ccc(F)c(Cl)c5)c4n3)CC2)CC1 | 138 to 140 |
| Cc1cc(O)cc(N(C)C)c1 | 67 to 68 |
| Cc1ccc(S(=O)(=O)N2CCC[C@H]2C(=O)N[C@@H](CC(N)=O)C(=O)O)cc1 (Tos-Pro-Asn-OH) | 178 to 180 |
| CCOC(=O)C(CO)C(C)c1cccnc1 (stereo not drawn) | 128 to 131 |
| CC(C)(C)OC(=O)N1CCC(c2ccc(COc3ccc(S(C)(=O)=O)cc3)cn2)CC1 | 140 to 142 |

Other lines, results leading:

| melting point [°C] | SMILES |
| --- | --- |
| 160 to 162 | Cc1ccc(NC(=O)c2ccc(CN3CCC[C@H](N(C)C)C3)c(C(F)(F)F)c2)cc1Nc1nccc(-c2cncnc2)n1 |
| > 245 | N#Cc1cncc(I)c1O |
| 52 to 55 | CCOC(=O)C(C(=O)C=CC(C)Oc1ccc(Oc2ccc(C(F)(F)F)cc2)cc1)C(=O)OCC (stereo not drawn) |
| 100 to 101 | CC1(C)CCc2c(N3CCOCC3)nc3sc4c(NCCN5CCOCC5)ncnc4c3c21 |
| 171 to 172 | C=CC(C)(C)CC(NC(=O)c1ccc(Cl)cc1)NC(=NC#N)Nc1cccnc1 (stereo not drawn) |
| 129 to 133 | COC(=O)Nc1ccc(-c2cccc(C3=NC(C)(C)Cc4cc(OC)c5c(c43)CC(C)(C)O5)c2)cc1 |
| 151 to 152 | C#CCNc1ccc([N+](=O)[O-])cc1[N+](=O)[O-] |
| 176 to 180 | NNc1ccc(-c2ccc(Cl)cc2)nn1 |
| 143 to 146 | CCN(CC)C(=O)C(c1ccccc1)n1cnc2[nH]ncc2c1=S (stereo not drawn) |
| 165 | CCON=C(C(=O)OCC)c1csc(NC(c2ccccc2)(c2ccccc2)c2ccccc2)n1 |
| 140 to 142 | CCOC(=O)C(Cc1cc2cc(C#N)ccc2o1)c1ccc(O)cc1 (stereo not drawn) |
| 131 to 133 | CSc1c(O)cncc1Oc1ccccc1 |
| 68 to 70 | C=CCCOc1ccc(C[C@H](NC(=O)OC(C)(C)C)C(=O)N[C@@H](CC(C)C)C(=O)O)cc1 |
| 101 to 103 | COC(=O)c1ccc(C(=O)NCc2cc(OC)cc(OC)c2)cc1Cl |
| 94 to 96 | CC(C)NCC(O)COc1cccc(Cl)c1Cl (stereo not drawn) |
| 200 | CCOP(=O)(OCC)Oc1c(C2CCCCN2CCCCNC(=O)c2ccc(NC(=O)c3ccc(Cl)cc3)cc2)ccc2c1CCCC2 (stereo not drawn) |
| 149 to 150 | OCc1nn(-c2ccc(Cl)cc2)c2c1CCC2 |
| 179 to 181 | CN1CCN(CCCCCC(=O)N2c3ccccc3C(=O)Nc3cccnc32)CC1 |
| 254 | CC12CC(=O)NN=C1c1ccc(C#N)cc1C2 (stereo not drawn) |
| 139 to 143 | NC(=O)c1cc(Oc2ccc(C(F)(F)F)cc2Cl)ccc1[N+](=O)[O-] |
| 98.5 to 102 | O=C(CCn1ccnc1)Cc1c(Cl)cccc1Cl |
| 238 to 240 | CCOCc1nc2c(N)nc3cc(Cl)ccc3c2n1CC(C)(C)O |
| 147 to 148 | O=S(=O)(CCCl)CCC(F)(F)C(F)(F)C(F)(F)C(F)(F)C(F)(F)C(F)(F)C(F)(F)C(F)(F)C(F)(F)C(F)(F)F |
| 198 | CCCCCc1nnc(Sc2cc(O)c(C(C)(C)CC(C)(C)C)cc2O)n1-c1ccccc1 |
| 129 to 130 | Cc1nc(C(C)(O)c2cccs2)sc1C (stereo not drawn) |

| melting point [°C] | SMILES |
| --- | --- |
| 352 | O=C(O)c1ccc2c(c1)C1(c3ccccc3-2)c2ccccc2-c2ccc(C(=O)O)cc21 |
| > 300 | O=[N+]([O-])c1cccc2ccc3nc(O)c(O)nc3c12 |
| 234 to 235 | Cc1cc(C(=O)N2CCC3(CC2)CSC2=C(O3)c3ccccc3C(=O)C2=O)c(C)o1 |
| 234 to 236 | CSc1cn(C)c2cc(-c3cccc(Cl)c3)sc2c1=O |
| 69 to 70 | CC(C)(C)OC(=O)NC12CCC1CN(Cc1ccccc1)C2 (stereo not drawn) |
| 170 | O=C1C2=NCCCN2c2cccc(Cl)c21 |
| 114 to 116 | O=Cc1ccc2c(c1)Sc1ccccc1C=C2 |
| 51 to 52 | CCCCCC1CCC(c2ccc(-c3ccc(Br)cc3C(F)(F)F)cc2)CC1 (stereo not drawn) |
| 76.3 to 76.8 | CCCCCCCc1ccc(-c2ncc(C#N)c(Cl)n2)cc1 |
| 123 to 125 | CCN(Cc1ccccc1)c1ccc(C2OC(=O)c3cc(N(C)C)ccc32)cc1 (stereo not drawn) |
| 57 to 58.5 | C=C(C)C(=O)OCCOCCOC(=O)c1ccc(O)c(Cl)c1 |
| 116 to 118 | CCCCOC(=O)c1nc(Cl)c2ccc(OC(C)C)cc2c1O |
| 60 to 62 | COc1cc(N)c(F)cc1Br |
| 158 to 160 | CC(C)(C)[Si](C)(C)OCCCn1ccc2c3c(c(-c4ccccc4Cl)cc21)C(=O)NC3=O |
| 168 to 180 | C#C[C@H](Cc1cccc(F)c1)n1nnc2cc3c(cc2c1=O)OCN(C1CC1)C3=O |
| 126 to 129 | CCOc1c(-c2ccc(F)cc2)c(=O)c1=O |
| 207 to 208 | Cc1noc(NC(=O)N2CCN(c3cc(-c4ccc(F)cc4)ncn3)CC2)c1C |
| 80 to 82 | C[C@H]1C[C@@](O)(c2ccc(S(=O)(=O)c3ccc4c(c3)CCC(=O)N4C)s2)CCO1 |
| 158 to 161 | COc1cc2ccc(CC(=S)N3CCOCC3)cc2cc1OC |
| 150 to 151 | C=C=COc1ccccc1S(=O)(=O)NC(=O)Nc1nc(C)nc(OC)n1 |
| 182 to 185 | O=C(NC(=S)N1CCN(c2nc3cccccc-3n2)CC1)c1ccccc1 |
| > 300 | O=C(Nc1cc2cccnc2cc1N1CCCCC1)c1csc2cncnc12 |
| 91 to 93 | CC(C)[C@H](NC(=O)N(C)Cc1ccccn1)C(=O)N[C@@H](Cc1ccccc1)[C@@H](O)[C@@H](O)[C@H](Cc1ccccc1)NC(=O)OC(C)(C)C |
| 215 to 220 | CCN1CCOc2cc(Nc3ncc(Cl)c(Nc4ccccc4C(=O)NC)n3)ccc2C1=O |
| 165 to 166 | O=[N+]([O-])c1ccc(Oc2cccc3cccnc23)cc1 |
